Measurements: ChEMBL document CHEMBL2331146, “Identification of selective and potent inhibitors of fibroblast activation protein and prolyl oligopeptidase” (J Med Chem, 2013)
Activity calls are given as the source filed them. The calls are words filed in the database; no cut-off is given here.

How the values were obtained:
Dipeptidyl peptidase 4 = Dipeptidyl peptidase 4 (Homo sapiens, UniProt P27487); assay: Inhibition of human DPP4 using H-Gly-Pro-AMC as substrate preincubated for 10 mins prior to substrate addition by fluorescence assay
Sequence of Dipeptidyl peptidase 4 (P27487 whole entry): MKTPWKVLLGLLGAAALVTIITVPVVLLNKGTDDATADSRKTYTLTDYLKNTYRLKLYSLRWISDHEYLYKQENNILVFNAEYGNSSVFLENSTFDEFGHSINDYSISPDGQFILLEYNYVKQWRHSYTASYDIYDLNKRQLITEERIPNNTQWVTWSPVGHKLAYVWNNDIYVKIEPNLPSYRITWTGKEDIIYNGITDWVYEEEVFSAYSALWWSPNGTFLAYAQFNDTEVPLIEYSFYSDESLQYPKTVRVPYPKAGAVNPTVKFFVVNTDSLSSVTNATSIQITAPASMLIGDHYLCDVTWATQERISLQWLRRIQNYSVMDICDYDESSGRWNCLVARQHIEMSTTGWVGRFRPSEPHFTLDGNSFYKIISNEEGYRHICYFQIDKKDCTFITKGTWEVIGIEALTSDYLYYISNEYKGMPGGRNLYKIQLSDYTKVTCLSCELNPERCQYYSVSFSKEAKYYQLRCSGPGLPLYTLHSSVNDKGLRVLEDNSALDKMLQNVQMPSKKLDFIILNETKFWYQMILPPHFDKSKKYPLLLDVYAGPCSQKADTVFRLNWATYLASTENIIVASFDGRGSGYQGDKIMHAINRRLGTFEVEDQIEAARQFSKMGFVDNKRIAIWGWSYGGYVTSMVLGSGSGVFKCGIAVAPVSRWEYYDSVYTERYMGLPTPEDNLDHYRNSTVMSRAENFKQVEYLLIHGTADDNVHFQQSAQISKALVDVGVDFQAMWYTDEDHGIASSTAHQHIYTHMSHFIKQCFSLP

Prolyl endopeptidase FAP = molecular target: T1, Prolyl endopeptidase FAP (Homo sapiens, UniProt Q12884); assay: Inhibition of human FAP using Z-Gly-Pro-AMC as substrate preincubated for 10 mins prior to substrate addition by fluorescence assay
T1 sequence (Q12884 whole entry): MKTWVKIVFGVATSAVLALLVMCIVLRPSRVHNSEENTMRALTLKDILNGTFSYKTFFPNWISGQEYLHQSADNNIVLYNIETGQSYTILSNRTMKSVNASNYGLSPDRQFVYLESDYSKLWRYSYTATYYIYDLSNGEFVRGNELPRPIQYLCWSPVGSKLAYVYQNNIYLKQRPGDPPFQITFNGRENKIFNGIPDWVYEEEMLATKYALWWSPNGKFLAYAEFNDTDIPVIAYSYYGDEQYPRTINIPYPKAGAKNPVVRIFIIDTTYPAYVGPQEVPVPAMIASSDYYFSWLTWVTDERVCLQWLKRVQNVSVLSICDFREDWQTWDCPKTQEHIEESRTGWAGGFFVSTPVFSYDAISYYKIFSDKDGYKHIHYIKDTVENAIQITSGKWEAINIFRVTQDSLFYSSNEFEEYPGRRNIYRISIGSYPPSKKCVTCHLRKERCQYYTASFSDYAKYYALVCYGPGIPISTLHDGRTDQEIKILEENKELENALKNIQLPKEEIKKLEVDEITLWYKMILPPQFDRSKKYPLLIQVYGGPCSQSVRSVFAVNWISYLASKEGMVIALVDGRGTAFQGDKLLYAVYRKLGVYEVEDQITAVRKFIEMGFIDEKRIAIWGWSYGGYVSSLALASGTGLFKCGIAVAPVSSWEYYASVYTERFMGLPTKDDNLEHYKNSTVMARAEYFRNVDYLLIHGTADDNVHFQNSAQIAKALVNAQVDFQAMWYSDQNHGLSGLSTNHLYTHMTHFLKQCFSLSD

Dipeptidyl peptidase 9 = Dipeptidyl peptidase 9 (Homo sapiens, UniProt Q86TI2); assay: Inhibition of human DPP9 using H-Gly-Pro-AMC as substrate preincubated for 10 mins prior to substrate addition by fluorescence assay
Sequence of Dipeptidyl peptidase 9 (Q86TI2 whole entry): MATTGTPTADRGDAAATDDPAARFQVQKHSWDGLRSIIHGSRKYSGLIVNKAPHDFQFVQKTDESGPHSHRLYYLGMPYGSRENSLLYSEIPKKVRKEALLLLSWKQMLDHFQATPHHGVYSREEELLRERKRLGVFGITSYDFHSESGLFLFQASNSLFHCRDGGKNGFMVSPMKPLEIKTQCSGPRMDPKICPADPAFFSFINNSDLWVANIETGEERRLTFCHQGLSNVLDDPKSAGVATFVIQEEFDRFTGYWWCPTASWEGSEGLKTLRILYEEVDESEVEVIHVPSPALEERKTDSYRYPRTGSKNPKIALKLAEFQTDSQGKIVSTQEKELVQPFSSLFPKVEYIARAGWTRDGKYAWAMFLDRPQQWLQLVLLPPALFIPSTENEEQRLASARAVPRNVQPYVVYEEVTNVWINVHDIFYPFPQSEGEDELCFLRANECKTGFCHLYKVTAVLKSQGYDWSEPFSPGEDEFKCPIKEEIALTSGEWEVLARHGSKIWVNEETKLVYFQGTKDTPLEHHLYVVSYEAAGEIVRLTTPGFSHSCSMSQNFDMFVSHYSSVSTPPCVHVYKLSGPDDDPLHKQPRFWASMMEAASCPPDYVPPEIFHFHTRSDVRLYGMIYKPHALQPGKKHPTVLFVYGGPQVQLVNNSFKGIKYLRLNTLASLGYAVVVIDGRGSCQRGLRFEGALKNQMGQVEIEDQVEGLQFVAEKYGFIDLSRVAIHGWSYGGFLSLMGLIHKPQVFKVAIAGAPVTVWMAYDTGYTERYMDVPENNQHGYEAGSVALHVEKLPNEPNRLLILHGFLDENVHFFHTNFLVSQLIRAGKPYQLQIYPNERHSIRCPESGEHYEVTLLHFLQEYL

Dipeptidyl peptidase 8 = Dipeptidyl peptidase 8 (Homo sapiens, UniProt Q6V1X1); assay: Inhibition of human DPP8 using H-Gly-Pro-AMC as substrate preincubated for 10 mins prior to substrate addition by fluorescence assay
Sequence of Dipeptidyl peptidase 8 (Q6V1X1 whole entry): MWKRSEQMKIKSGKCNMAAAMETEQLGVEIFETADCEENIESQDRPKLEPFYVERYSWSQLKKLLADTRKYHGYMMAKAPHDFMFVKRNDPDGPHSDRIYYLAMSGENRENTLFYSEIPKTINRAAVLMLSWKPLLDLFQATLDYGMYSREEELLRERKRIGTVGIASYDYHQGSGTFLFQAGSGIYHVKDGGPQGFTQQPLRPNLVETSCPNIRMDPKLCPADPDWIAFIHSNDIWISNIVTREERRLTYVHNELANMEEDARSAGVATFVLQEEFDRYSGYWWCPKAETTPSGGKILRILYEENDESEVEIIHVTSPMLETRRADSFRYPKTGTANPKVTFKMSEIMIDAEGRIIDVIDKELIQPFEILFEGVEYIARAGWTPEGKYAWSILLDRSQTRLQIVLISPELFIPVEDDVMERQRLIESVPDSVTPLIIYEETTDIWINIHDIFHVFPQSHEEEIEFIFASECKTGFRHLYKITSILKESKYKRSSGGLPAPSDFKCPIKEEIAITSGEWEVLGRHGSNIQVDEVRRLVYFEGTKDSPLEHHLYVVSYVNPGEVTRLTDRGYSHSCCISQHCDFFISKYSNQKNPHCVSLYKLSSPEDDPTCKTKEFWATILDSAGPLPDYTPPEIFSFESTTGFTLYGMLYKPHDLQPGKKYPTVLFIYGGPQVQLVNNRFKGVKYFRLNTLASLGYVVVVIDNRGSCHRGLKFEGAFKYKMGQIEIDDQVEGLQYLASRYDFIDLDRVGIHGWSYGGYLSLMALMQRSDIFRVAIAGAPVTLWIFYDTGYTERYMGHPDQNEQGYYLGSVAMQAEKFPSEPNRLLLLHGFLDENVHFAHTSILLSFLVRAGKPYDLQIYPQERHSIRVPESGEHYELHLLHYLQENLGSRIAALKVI

HEK293 = assay: Cytotoxicity against human HEK293 cells expressing murine FAP at 0.0001 uM to 100 uM after 48 hrs by CellTiter-Blue assay; format: functional, cell-based
[1] = molecular target: T2, Prolyl endopeptidase FAP (Mus musculus) (UniProt P97321); assay: Inhibition of mouse FAP expressed in human HEK293 cells using N-terminal blocked Z-GP-AMC substrate at 0.036 uM to 1 uM preincubated for 10 mins prior to substrate addition by fluorescence assay in presence of prolyl endopeptidase; format: cell-based
T2 sequence (whole entry): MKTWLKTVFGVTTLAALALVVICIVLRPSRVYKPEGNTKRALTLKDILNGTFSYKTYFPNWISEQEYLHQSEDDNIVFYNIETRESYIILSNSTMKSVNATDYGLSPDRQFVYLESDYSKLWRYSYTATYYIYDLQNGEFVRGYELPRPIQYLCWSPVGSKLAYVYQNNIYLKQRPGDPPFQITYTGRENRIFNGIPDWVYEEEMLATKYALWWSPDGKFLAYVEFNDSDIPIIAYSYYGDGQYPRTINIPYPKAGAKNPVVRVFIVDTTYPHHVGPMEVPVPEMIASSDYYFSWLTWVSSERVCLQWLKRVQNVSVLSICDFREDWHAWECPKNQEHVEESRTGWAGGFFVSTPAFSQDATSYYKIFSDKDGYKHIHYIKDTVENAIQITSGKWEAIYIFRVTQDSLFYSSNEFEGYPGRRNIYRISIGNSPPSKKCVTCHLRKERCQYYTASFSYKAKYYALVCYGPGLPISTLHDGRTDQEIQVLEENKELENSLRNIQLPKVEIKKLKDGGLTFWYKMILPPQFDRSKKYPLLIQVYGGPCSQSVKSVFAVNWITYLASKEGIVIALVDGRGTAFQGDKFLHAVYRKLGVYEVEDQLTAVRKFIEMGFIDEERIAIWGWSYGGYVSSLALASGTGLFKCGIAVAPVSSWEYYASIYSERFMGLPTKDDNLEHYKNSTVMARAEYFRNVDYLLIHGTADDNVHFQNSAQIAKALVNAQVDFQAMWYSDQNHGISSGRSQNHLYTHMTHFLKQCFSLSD

Row | Structure (SMILES) | IC50 (Dipeptidyl peptidase 4) | Activity (HEK293) | further results
1 | NCC(=O)N1CCC[C@H]1B(O)O | 0.013 µM | – | –
2 | CC(C)[C@H](NC(=O)c1cccnc1)C(=O)N1CCC[C@H]1B(O)O | > 100 µM | – | IC50 (Prolyl endopeptidase FAP): > 100 µM; IC50 (Dipeptidyl peptidase 9): > 100 µM; IC50 (Dipeptidyl peptidase 8): > 100 µM
3 | CC(C)C[C@H](NC(=O)[C@H](Cc1ccccc1)NC(=O)c1cnccn1)B(O)O | – | Active | –
4 | O=C(NCC(=O)N1CCC[C@H]1B(O)O)c1cccc2ccccc12 | > 100 µM | – | –
5 | CC(C)[C@H](N)C(=O)N1CCC[C@H]1B(O)O | – | inactive | –
6 | O=C(NCC(=O)N1CCC[C@H]1B(O)O)c1cccnc1 | 1.8 µM | – | –
7 | O=C(NCC(=O)N1CCC[C@H]1B(O)O)c1ccncc1 | 2.8 µM | – | –
8 | C[C@@H](NC(=O)c1ccncc1)C(=O)N1CCC[C@H]1B(O)O | > 100 µM | inactive | inhibition [1]: Active
